Reference: patent US20230212142A9, “Substituted 5-Cyclopropyl-1H-pyrazole-3-yl-amine Derivatives as Selective CDK12/13 Inhibitors” (Aurigene Discovery Technologies Limited, priority 2019, published 2023)

Tests used:
CDK13 = CDK13 (Homo sapiens, UniProt Q14004); assay: Biochemical assay for CDK13 (LanthaScreen Eu Kinase Binding Assay); details: kinase tracer 236 100 nM, CDK13 5 nM
Procedure: LanthaScreen Eu Kinase Binding Assays are based on the binding and displacement of Alexa Fluor 647-labeled, ATP-competitive kinase inhibitor scaffold (kinase tracer) to the kinase of interest. Binding of the kinase tracer 236 (100 nM) to the CDK13 (5 nM) kinase is detected using a europium-labelled anti- GST tag antibody (2 nM), which binds to the kinase. Simultaneous binding of the tracer and antibody to the kinase results in a high degree of FRET (fluorescence resonance energy transfer) from the europium (Eu) donor fluorophore to the Alexa Fluor™ 647 acceptor fluorophore on the kinase tracer. Binding of an inhibitor to the kinase competes for binding with the tracer, resulting in a loss of FRET signal.

CDK7 [1] = target: T1, CDK7 (Homo sapiens, UniProt P50613); assay: Biochemical assay for CDK7 (LANCE TR-FRET, ULight-MBP phosphorylation); details: CDK7 10 nM, ATP 1 mM/100 μM, 60 min pre-incubation
Procedure: The inhibitory activity of the test compounds was assessed by the LANCE TR-FRET assay, which detects the ATP-dependent phosphorylation of an ULight-myelin basic protein (MBP) substrate peptide (100 nM) by CDK7 (10 nM). Briefly, the enzyme reaction was run in reaction buffer (20 mM HEPES (pH 7.5), 10 mM MgCl2, 0.01% Triton x, 100 μM Sodium Orthovanadate, 1 mM DTT). The assay was performed in 384-well plate. The end concentration of the ATP substrate was 1 mM/100 μM, and that of the ULight-MBP substrate peptide was 100 nM, and of CDK7 was 10 nM. Pre-incubation of the compound and enzyme was performed for 60 min at room temperature. After 60 min incubation at room temperature, the reaction was terminated by the addition of 40 mM EDTA and 1 nM Eu-labeled anti-phospho-MBP-binding protein antibody in the buffer. Time-resolved fluorescence (excitation, 320 nm; emission donor, 615 nm; emission acceptor, 665 nm) was monitored by using 2030 multilabel reader Victor5 (PerkinElmer). The readout was calculated as (acceptor counts/donor counts)×1000. The IC50 values were derived by fitting a sigmoidal dose-response curve to a plot of assay readout over inhibitor concentration. All fits were computed with the program Prism 5.03 (Graph Pad Software, San Diego, Calif.).
Target sequence in this assay (P50613 whole entry, species assumed): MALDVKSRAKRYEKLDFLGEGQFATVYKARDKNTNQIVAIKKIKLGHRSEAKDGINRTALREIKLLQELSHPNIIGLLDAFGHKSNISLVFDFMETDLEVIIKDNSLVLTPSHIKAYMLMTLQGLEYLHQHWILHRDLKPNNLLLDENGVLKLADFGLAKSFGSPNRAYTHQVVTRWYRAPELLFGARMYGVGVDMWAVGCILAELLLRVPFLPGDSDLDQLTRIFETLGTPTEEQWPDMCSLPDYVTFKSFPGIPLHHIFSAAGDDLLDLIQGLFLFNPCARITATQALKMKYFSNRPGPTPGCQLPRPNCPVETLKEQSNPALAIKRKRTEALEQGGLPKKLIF
Target sequence in this assay (P51946 whole entry partner, species assumed): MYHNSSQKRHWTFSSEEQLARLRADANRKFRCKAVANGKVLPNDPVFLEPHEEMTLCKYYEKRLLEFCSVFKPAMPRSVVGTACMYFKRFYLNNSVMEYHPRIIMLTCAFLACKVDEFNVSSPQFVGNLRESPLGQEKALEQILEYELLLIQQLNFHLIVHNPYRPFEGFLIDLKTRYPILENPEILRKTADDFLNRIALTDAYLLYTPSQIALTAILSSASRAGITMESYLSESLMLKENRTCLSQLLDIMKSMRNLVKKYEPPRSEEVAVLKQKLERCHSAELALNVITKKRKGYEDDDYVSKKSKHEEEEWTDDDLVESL
Target sequence in this assay (P51948 whole entry partner, species assumed): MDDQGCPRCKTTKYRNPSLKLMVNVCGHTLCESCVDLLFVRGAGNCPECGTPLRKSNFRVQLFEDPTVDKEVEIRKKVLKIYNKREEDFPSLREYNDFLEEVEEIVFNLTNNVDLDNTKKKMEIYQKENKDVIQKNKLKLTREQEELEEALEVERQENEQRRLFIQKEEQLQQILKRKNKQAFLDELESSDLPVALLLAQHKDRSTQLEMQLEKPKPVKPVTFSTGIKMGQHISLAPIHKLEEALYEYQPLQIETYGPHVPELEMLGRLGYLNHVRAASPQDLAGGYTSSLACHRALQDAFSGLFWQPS

CDK12 [2] = target: T2, CDK12 (Homo sapiens, UniProt Q9NYV4); assay: CDK12 plate based target engagement assay in Jurkat cells; type: cell-based; design: endogenous in cells; host or cells: Jurkat; details: 6 hours treatment, Bio-THZ531 competition
Procedure: Jurkat cells were treated with varying concentrations of the compound for 6 hours. The DMSO concentration was maintained at 0.1%. Cells were harvested and lysed. 200 μg of the lysate was incubated with 1 μM Bio-THZ531 in the presence of 1mM DTT and incubated on a rocker at 4° C. overnight. 100 μL of this sample was added to pre-washed streptavidin coated plates and incubated at room temperature on a rocker for 2 hours. The plates were washed and incubated with CDK12 antibody for overnight at 4° C. Next day the plate was washed and incubated for 2 hours with HRP labelled anti rabbit secondary antibody. Bio-THZ531 bound CDK12 was determined using TMB substrate. The plates were read using the M3 spectrophotometer at […]. Percentage CDK12 occupancy with the test compound was calculated over untreated control. Occupancy50 was calculated by fitting the dose response data to sigmoidal curve fitting equation using GraphPad Prism software V5.

CDK7 [3] = target: T1, CDK7; assay: CDK7 target occupancy in Jurkat cells; type: cell-based; design: endogenous in cells; host or cells: Jurkat
Target sequence in this assay (P50613 2-346 limits assumed): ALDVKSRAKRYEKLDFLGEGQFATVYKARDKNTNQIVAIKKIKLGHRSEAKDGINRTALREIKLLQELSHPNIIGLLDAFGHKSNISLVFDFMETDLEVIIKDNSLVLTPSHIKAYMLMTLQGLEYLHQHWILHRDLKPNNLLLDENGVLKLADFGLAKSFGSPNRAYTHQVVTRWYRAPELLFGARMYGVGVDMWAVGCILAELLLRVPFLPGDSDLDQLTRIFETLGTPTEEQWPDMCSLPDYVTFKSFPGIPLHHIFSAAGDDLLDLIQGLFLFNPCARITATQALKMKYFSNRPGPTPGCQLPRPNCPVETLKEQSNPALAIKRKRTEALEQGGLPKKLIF
Target sequence in this assay (P51946 whole entry partner): as the sequence (P51946 whole entry partner, species assumed) above
Target sequence in this assay (P51948 whole entry partner): as the sequence (P51948 whole entry partner, species assumed) above

CDK12 [4] = target: T2, CDK12; assay: Biochemical assay for CDK12 (kinase-tagged phage / qPCR competition binding); design: host or cells: E. coli BL21-derived host (T7 phage display) or HEK-293
Procedure: Kinase-tagged T7 phage strains were grown in parallel in 24-well blocks in an E. coli host derived from the BL21 strain. E. coli were grown to log-phase and infected with T7 phage from a frozen stock (multiplicity of infection=0.4) and incubated with shaking at 32° C. until lysis (90-150 minutes). The lysates were centrifuged (6,000×g) and filtered (0.2 μm) to remove cell debris. The remaining kinases were produced in HEK-293 cells and subsequently tagged with DNA for qPCR detection. Streptavidin-coated magnetic beads were treated with biotinylated small molecule ligands for 30 minutes at room temperature to generate affinity resins for kinase assays. The liganded beads were blocked with excess biotin and washed with blocking buffer (SeaBlock (Pierce), 1% BSA, 0.05% Tween 20, 1 mM
DTT) to remove unbound ligand and to reduce non-specific phage binding. Binding reactions were assembled by combining kinases, liganded affinity beads, and test compounds in lx binding buffer (20% SeaBlock, 0.17×PBS, 0.05% Tween 20, 6 mM DTT). Test compounds were prepared as 40× stocks in 100% DMSO and directly diluted into the assay. All reactions were performed in polypropylene 384-well plates in a final volume of 0.02 ml. The assay plates were incubated at room temperature with shaking for 1 hour and the affinity beads were washed with wash buffer (1 PBS, 0.05% Tween 20). The beads were then re-suspended in elution buffer (1× PBS, 0.05% Tween 20, 0.5 μM non-biotinylated affinity ligand) and incubated at room temperature with shaking for 30 minutes. The kinase concentration in the eluates was measured by qPCR.
Target sequence in this assay (Q9NYV4 whole entry, species assumed): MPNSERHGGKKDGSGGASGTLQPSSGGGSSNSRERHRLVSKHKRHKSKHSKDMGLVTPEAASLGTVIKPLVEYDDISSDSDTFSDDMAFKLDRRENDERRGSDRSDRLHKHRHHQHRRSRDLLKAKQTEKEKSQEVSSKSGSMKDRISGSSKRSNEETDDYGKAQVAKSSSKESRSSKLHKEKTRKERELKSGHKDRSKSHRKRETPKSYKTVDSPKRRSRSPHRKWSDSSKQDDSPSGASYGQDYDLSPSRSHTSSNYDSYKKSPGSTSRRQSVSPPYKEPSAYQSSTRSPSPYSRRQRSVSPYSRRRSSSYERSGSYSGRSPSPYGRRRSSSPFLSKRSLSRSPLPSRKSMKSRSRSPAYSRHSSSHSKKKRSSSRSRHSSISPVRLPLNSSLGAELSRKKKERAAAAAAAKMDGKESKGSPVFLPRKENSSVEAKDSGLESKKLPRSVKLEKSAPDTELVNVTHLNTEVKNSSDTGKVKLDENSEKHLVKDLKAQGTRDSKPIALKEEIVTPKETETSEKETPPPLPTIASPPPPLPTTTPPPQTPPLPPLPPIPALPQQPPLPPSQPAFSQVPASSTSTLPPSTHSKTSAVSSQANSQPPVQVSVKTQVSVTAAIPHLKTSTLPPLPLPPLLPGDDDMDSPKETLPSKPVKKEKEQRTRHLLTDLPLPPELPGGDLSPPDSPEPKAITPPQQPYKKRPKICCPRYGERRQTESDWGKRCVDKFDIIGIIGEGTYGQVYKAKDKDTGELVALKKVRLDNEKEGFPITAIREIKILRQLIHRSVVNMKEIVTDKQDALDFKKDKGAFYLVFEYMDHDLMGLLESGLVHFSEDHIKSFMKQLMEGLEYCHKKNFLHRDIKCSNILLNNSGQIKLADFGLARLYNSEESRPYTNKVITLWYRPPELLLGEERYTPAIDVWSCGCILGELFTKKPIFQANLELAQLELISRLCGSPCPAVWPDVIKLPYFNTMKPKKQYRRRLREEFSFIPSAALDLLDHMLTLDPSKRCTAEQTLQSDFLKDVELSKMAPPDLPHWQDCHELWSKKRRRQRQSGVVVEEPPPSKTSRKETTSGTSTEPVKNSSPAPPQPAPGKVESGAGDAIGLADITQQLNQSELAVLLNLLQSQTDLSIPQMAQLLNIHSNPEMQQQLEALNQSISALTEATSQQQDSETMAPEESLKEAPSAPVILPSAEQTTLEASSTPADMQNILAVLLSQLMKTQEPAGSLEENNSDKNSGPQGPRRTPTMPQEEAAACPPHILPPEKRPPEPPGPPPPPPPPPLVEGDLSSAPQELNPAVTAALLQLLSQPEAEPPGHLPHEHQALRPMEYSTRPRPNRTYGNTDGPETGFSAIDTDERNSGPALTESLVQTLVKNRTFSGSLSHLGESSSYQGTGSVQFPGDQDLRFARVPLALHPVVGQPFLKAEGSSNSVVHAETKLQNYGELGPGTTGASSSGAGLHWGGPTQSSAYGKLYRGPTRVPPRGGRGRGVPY

CDK13, sequence (Q14004 whole entry, species assumed): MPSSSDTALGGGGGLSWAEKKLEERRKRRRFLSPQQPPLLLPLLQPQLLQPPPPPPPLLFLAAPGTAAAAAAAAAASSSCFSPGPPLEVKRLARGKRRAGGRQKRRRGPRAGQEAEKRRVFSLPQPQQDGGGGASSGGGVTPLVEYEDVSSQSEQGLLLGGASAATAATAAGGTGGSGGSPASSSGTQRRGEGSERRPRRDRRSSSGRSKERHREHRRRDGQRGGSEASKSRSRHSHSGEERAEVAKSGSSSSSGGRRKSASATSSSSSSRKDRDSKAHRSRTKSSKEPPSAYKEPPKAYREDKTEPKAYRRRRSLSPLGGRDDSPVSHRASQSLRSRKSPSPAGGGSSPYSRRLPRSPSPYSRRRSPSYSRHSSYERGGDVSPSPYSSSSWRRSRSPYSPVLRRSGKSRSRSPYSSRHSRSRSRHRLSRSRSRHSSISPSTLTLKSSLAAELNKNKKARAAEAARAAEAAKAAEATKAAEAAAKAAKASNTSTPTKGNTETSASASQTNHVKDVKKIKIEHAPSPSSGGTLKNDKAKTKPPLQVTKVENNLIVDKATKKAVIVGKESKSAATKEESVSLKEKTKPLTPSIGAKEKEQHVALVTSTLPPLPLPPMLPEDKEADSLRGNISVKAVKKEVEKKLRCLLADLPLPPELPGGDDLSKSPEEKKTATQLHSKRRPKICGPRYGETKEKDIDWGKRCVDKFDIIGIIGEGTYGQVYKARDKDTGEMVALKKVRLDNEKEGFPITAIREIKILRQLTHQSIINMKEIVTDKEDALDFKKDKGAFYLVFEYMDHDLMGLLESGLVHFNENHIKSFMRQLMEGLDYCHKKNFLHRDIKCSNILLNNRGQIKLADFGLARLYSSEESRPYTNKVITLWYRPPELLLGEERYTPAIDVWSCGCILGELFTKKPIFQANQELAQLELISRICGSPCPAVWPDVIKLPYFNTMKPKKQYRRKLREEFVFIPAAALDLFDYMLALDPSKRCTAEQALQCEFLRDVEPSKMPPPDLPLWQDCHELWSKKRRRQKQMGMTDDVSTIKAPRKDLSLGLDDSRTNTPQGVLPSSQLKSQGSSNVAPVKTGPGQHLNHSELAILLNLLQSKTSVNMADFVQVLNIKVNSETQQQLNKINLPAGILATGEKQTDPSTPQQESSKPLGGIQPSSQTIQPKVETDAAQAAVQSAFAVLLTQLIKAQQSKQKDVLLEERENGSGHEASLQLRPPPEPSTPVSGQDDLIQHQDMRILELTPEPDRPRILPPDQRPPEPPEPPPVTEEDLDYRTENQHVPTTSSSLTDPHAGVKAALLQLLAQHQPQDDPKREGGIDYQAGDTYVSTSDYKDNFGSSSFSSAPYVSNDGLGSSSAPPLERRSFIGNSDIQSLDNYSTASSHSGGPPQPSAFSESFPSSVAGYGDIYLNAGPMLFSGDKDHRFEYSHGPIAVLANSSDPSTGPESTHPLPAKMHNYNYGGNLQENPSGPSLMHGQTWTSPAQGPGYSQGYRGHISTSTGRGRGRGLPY
CDK13, sequence (O75909 whole entry partner, species assumed): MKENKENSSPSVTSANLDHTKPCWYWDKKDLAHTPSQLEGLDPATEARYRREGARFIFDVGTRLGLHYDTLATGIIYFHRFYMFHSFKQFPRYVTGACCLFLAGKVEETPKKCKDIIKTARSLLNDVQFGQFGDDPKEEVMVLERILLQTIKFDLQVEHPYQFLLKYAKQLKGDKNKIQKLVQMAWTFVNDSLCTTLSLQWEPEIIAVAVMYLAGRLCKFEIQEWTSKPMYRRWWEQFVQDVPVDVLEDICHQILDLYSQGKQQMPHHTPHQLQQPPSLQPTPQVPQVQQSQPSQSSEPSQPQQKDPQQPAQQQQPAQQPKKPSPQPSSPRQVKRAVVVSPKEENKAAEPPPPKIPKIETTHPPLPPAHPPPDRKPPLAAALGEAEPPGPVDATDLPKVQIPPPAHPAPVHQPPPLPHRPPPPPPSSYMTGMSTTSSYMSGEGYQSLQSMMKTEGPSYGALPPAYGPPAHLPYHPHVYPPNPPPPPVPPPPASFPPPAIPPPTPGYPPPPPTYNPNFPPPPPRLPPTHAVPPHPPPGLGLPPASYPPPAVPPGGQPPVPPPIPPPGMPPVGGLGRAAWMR

Compound | IC50 (CDK13) [nM] | IC50 (CDK7 [1]) [nM] | Jurkat Cells, CDK12 Target Occ50 (CDK12 [2]) [µM] | Jurkat Cells, CDK7 Target Occ50 (CDK7 [3]) | Kd (CDK12 [4]) [nM] | Fold CDK7 Target Occ50 over CDK12 Target Occ50 (CDK7 [3]; printed in brackets beside the CDK7 Occ50) [×]
C=CC(=O)NCc1ccc(-c2cccc(C(C)C(=O)Nc3cc(C4CC4)[nH]n3)c2)cn1 (centres unmarked) [Compound A] |  |  | 0.23 | 0.61 µM |  | 2
C=CC(=O)NC1(c2ccc(-c3ccc([C@H](C)C(=O)Nc4cc(C5CC5)[nH]n4)cc3)cn2)CC1 [Compound 18, (S)-N-(1-(5-(4-(1-((5-cyclopropyl-1H-pyrazol-3-yl)amino)-1-oxopropan-2-yl)phenyl)pyridin-2-yl)cyclopropyl)acrylamide] | 119 | 5450 |  |  | < 50 | 
C=CC(=O)Nc1ccc(-c2ccc(C(C)C(=O)Nc3cc(C4CC4)[nH]n3)cc2)cc1 (racemic) [Compound 1, N-(4′-(1-((5-cyclopropyl-1H-pyrazol-3-yl)amino)-1-oxopropan-2-yl)-[1,1′-biphenyl]-4-yl)acrylamide] | 24 | 11400 |  |  | 50 to 500 | 

Next, values leading:

IC50 (CDK13) [nM] | IC50 (CDK7 [1]) [nM] | Jurkat Cells, CDK12 Target Occ50 (CDK12 [2]) [µM] | Jurkat Cells, CDK7 Target Occ50 (CDK7 [3]) | Kd (CDK12 [4]) [nM] | Fold CDK7 Target Occ50 over CDK12 Target Occ50 (CDK7 [3]; printed in brackets beside the CDK7 Occ50) [×] | Compound
3.8 | 5380 | 0.022 | >>2 μM | < 50 |  | C=CC(=O)NCc1ccc(-c2ccc([C@H](C)C(=O)Nc3cc(C4CC4)[nH]n3)cc2)cn1 [Compound 8, (S)-N-((5-(4-(1-((5-cyclopropyl-1H-pyrazol-3-yl)amino)-1-oxopropan-2-yl)phenyl)pyridin-2-yl)methyl)acrylamide]
3.9 | 1120 |  |  | < 50 |  | CC(C(=O)Nc1cc(C2CC2)[nH]n1)c1ccc(-c2ccc(CNC(=O)/C=C/CN3CCOCC3)nc2)cc1 (single isomer, unassigned) [Compound 14, (E)-N-((5-(4-(1-((5-cyclopropyl-1H-pyrazol-3-yl)amino)-1-oxopropan-2-yl)phenyl)pyridin-2-yl)methyl)-4-morpholinobut-2-enamide]
